Source: US20240043434A1, “COCRYSTALS OF UPADACITINIB” (AbbVie Inc., priority 2021, published 2024)
In brackets after ≈: the same amount, converted by molar mass. Read-outs that look alike come from different tables or passages of the source.

Key:
[1] = Aqueous solubility determination of upadacitinib cocrystals; assay type: physicochemical; details: aqueous solubility in water at 37° C., equilibrated by end-over-end tumbling for up to 24 hours
Description: A solubility study was performed to determine the aqueous solubility for five of the upadacitinib cocrystals disclosed herein. Sufficiently sized samples of the solid cocrystals were added to individual vials along with a measured volume of water. The water-cocrystal mixtures were equilibrated at 37° C. by end-over-end tumbling for up to 24 hours. The amount of dissolved solid was determined for each sample.

[2] = Storage stability determination of upadacitinib cocrystals (open dish, 40° C./75% RH); assay type: physicochemical; design: reference not given here; details: chemical purity after storage in open dish at 40° C./75% RH up to one month
Description: A storage stability study was performed to determine the short term stability for each of the five upadacitinib cocrystals disclosed herein. Samples of each upadacitinib cocrystal were stored in an open dish at 40° C./75% relative humidity (RH) for up to one month.

SMILES	Solubility [1]	Purity [2]	Solubility ([1]; thermodynamic from solid, read-out: Solubility)
CC[C@@H]1CN(C(=O)NCC(F)(F)F)C[C@@H]1c1cnc2cnc3[nH]ccc3n12.O=C(O)c1ccc(O)c(O)c1 [3,4-dihydroxybenzoic acid cocrystal]	11300 ± 200 µg/mL	103.9%	
CC(=O)Nc1ccc(C(=O)O)cc1.CC[C@@H]1CN(C(=O)NCC(F)(F)F)C[C@@H]1c1cnc2cnc3[nH]ccc3n12 [4-acetamidobenzoic acid cocrystal]	2530 ± 30 µg/mL	100.0%	
CC[C@@H]1CN(C(=O)NCC(F)(F)F)C[C@@H]1c1cnc2cnc3[nH]ccc3n12.O=C(O)c1ccc(O)c([N+](=O)[O-])c1 [4-hydroxy-3-nitrobenzoic acid cocrystal]	1470 ± 10 µg/mL	99.9%	
CC[C@@H]1CN(C(=O)NCC(F)(F)F)C[C@@H]1c1cnc2cnc3[nH]ccc3n12.O=C(O)c1ccc(O)cc1 [4-hydroxybenzoic acid cocrystal]	4290 ± 50 µg/mL	102.7%	
CC[C@@H]1CN(C(=O)NCC(F)(F)F)C[C@@H]1c1cnc2cnc3[nH]ccc3n12 [Upadacitinib Form I, (3S,4R)-3-ethyl-4-(3H-imidazo[1,2-a]pyrrolo[2,3-e]pyrazin-8-yl)-N-(2,2,2-trifluoroethyl)pyrrolidine-1-carboxamide, reference compound]		100.2%	370 ± 4 µg/mL (≈ 973 µM)
CCC1CN(C(=O)NCC(F)(F)F)CC1c1cnc2cnc3[nH]ccc3n12.O=C(O)c1cc(O)c(O)c(O)c1 (stereo not drawn) [gallic acid cocrystal]	5130 ± 50 µg/mL	103.8%	
